Source: US20050080260A1, “Preparation of prodrugs for selective drug delivery” (priority 2003, published 2005)
Where two headings read alike, the source gives them in different places. Marks after values point to notes of the source that are not given here.

Columns and labels:
[1] = system: Friends Leukemia Virus (FLV); assay: Anti-retroviral potency in a murine model (FLV-infected mice, spleen and body weight); format: in vivo, Swiss mice; conditions: for Average Final Weight / Average Weight Change / Average Spleen Weight: FLV-infected four-week old Swiss mice, 300 nanomoles on days 5-9, sacrificed day 12; for Average Spleen Weight: p < 0.01 for MTLJ-1-Foscarnet; for weight gain: FLV-infected mice, treated group
Experimental: (§1) Evaluation Foscarnet Prodrug Anti-Retroviral Potency in a Murine Model. The effect of prodrug MTLJ-1-Foscarnet on four-week old Swiss mice infected with Friends Leukemia Virus (FLV) was tested by the Luminide Pharmaceutical Corporation. The mice were infected with FLV by an IP injection with 0.5 ml viral solution prepared by resuspending F4-6 cells (1×10^6 cells/ml) in fresh media and harvesting that media 24 hr later and filtering through a […] filter. The Foscarnet Group received 300 nanomoles of Foscarnet on days 5-9. The Carrier Group received 300 nanomoles of carrier on days 5-9. The MTLJ-1-Foscarnet Group received 300 nanomoles of MTLJ-1-Foscarnet on days 5-9. All mice were sacrificed on day 12. The spleens were removed and weighed. The toxicity of the carrier MTLJ-1 was also evaluated by the determination of its LD50.

[2] = Acute toxicity, determination of LD50; format: in vivo
Experimental: as §1

[3] = Toxicity on replicate uninfected macrophage plates (MTS cell viability); format: cell-based, human; conditions: human, uninfected macrophages, MTS, read-out: TC50 (50% cytotoxicity)
Experimental: (§2) Evaluation of Prodrug Anti-HIV-1 Potency in Macrophage Assay. The anti HIV-1 evaluation of the carriers and their conjugates was performed in 6-day old monocyte/macrophages at Southern Research Institute, Frederick, Md. Briefly, peripheral blood monocytes were isolated from normal HIV-1 negative donors by plastic adherence following ficoll hypaque purification of the buffy coats. The monocytes were then cultured for 6 days to a macrophage-like phenotype. The test compounds were serially diluted and added to the cultures followed by the addition of a pretitered amount of the Ba-L strain of HIV-1 obtained from the NIAID AIDS Research and Reference Reagent Repository. Cultures were washed by media removal 24 hours post infection, fresh compound added and the cultures continued for an additional 6 days. HIV p24 antigen content to assess virus replication was measured by p24 ELISA assay. AZT and ddc were used as positive control compounds and run in parallel with each determination. […] At assay termination, the assay plates were stained with the tetrazolium based dye MTS to determine cell viability and quantify compound toxicity. Using a computer program at Southern Research Institute, IC50 (50% inhibition of virus replication), TC50 (50% cytotoxicity) and a therapeutic index (TI, […]) were obtained.

Ba-L strain of HIV-1 = assay: Anti-HIV-1 potency in macrophage assay (p24 ELISA); format: cell-based, HIV-1 in human monocyte/macrophages; conditions: for IC50: Human immunodeficiency virus 1, BAL, Macrophage
Experimental: as §2

monocyte/macrophages = assay: Toxicity on replicate uninfected macrophage plates (MTS cell viability); format: cell-based, human; conditions: Southern Research Institute tests, TABLES 7-9
Experimental: as §2

[4] = TABLE 7 (negative control carrier test)
[5] = TABLE 9 (6a carrier and Foscarnet prodrug)
[6] = TABLE 7 (negative control carrier test, Southern Research Institute), HIV-1 Ba-L, human macrophages, p24 antigen, read-out: IC50 (50% inhibition of virus replication)
[7] = TABLE 9 (6a carrier and Foscarnet prodrug, Southern Research Institute), HIV-1 Ba-L, human macrophages, p24 antigen, read-out: IC50 (50% inhibition of virus replication)
[8] = TABLE 8 (6a carrier and ddc prodrug, Southern Research Institute), HIV-1 Ba-L, human macrophages, p24 antigen, read-out: IC50 (50% inhibition of virus replication)
[9] = TABLE 10, Southern Research Institute under NIH contract, HIV-1 in human macrophages, read-out: IC50
[10] = TABLE 10, Southern Research Institute under NIH contract

With `CCCC(NCCN(CC)c1ccc(/C(=C/C=C/C(OP(=O)(O)C(=O)O)(c2ccc(N(C)C)cc2)c2ccc(N(CC)CCNC(CCC)N(CC)c3ccc4c(=O)[nH][nH]c(=O)c4c3)cc2)c2ccc(N(C)C)cc2)cc1)N(CC)c1ccc2c(=O)[nH][nH]c(=O)c2c1` (stereo not drawn) [MTLJ-1-Foscarnet] the “Spleen weights compared with control groups (in words)” value ([1]; FLV-infected Swiss mice) was “the same as those of the No Virus, No Treatment Group”, the “Suppression of FLV infection in mice (in words)” value ([1]; FLV-infected Swiss mice, significance level of 0.01, Students T test) was “highly effective” and the “Average Final Weight” value [1] was 22.4 g. For the same molecule, the “Average Weight Change” value [1] was “+2.5 g”, the “Average Spleen Weight” value [1] was 0.0914^a g and the weight gain [1] was 2.5 grams. For the same molecule, the “Toxicity in vivo (in words)” value ([2]; from LD50 and weight gain) was “nontoxic” and the LD50 ([2]; mouse, in vivo, ip) was greater than 1250 mg/kg.

In the case of `O=C([O-])P(=O)([O-])[O-].[Na+].[Na+].[Na+]` [Foscarnet, phosphonoformate, reference compound], the “Average Final Weight” value [1] is reported as 18.9 g, the “Average Weight Change” value [1] is reported as “+1.5 g” and the “Average Spleen Weight” value [1] is reported as 0.1727 g. The weight gain [1] was 1.5 grams, the CC50 at 7 days [3, 4] was greater than 10 µM and the CC50 at 7 days [3, 5] was greater than 333 µM. The IC50 (Ba-L strain of HIV-1; [6]) was 0.55 µM, the IC50 (Ba-L strain of HIV-1; [7]) was 1.83 µM and the “TI (TC50/IC50)” value (Ba-L strain of HIV-1; [4]) was greater than 18. The “TI (TC50/IC50)” value (Ba-L strain of HIV-1; [5]) was greater than 182.08.

In the case of `Nc1ccn([C@H]2CC[C@@H](CO)O2)c(=O)n1` [ddc, dideoxycytidine, reference compound], the “TI (TC50/IC50)” value (Ba-L strain of HIV-1) is reported as >2,500, the IC50 (Ba-L strain of HIV-1; [8]) is reported as 0.07 µM and the IC50 (Ba-L strain of HIV-1; [9]) is reported as 0.04 µM.

For `CCN(c1ccc(/C(=C/C=C/C=C2C=CC(=[N+](C)C)C=C2)c2ccc(N(C)C)cc2)cc1)c1ccc2c(=O)[nH][nH]c(=O)c2c1` [GZW2-33-1], the IC50 (Ba-L strain of HIV-1; [9]) was 18.9 µM and the “TI (TC50/IC50)” value (Ba-L strain of HIV-1; [10]) was greater than 5.3.

In the case of `CCCCc1ccc(C(/C=C/C=C(\c2ccc(CCCC)cc2)c2ccc(OCCN(CC)c3ccc4c(=O)[nH][nH]c(=O)c4c3)cc2)=C2C=CC(=[O+]CCN(CC)c3ccc4c(=O)[nH][nH]c(=O)c4c3)C=C2)cc1` [YY99811-1], the CC50 at 7 days [3, 4] is reported as greater than 10 µM, the “Toxicity in macrophage assay (in words)” value (monocyte/macrophages) is reported as “nontoxic” and the IC50 (Ba-L strain of HIV-1; [6]) is reported as greater than 10 µM.

With `CCN(c1ccc(/C(=C/C=C/C(=C2C=CC(=[N+](CC)c3ccc4c(=O)[nH][nH]c(=O)c4c3)C=C2)c2ccc(N(C)C)cc2)c2ccc(N(C)C)cc2)cc1)c1ccc2c(=O)[nH][nH]c(=O)c2c1` [6a] the CC50 at 7 days ([3]; TABLE 8 (6a carrier and ddc prodrug)) was greater than 100 µM, the CC50 at 7 days [3, 5] was greater than 104 µM and the “Toxicity in macrophage assay (in words)” value (monocyte/macrophages) was “nontoxic”. It also gave an IC50 (Ba-L strain of HIV-1; [8]) greater than 100 µM, an IC50 (Ba-L strain of HIV-1; [7]) of 23.1 µM and an IC50 (Ba-L strain of HIV-1; [9]) of 2.62 µM. The “TI (TC50/IC50)” value (Ba-L strain of HIV-1; [5]) was greater than 4.48 and the “TI (TC50/IC50)” value (Ba-L strain of HIV-1; [10]) was greater than 38.2.

For `CCN(c1ccc(/C(=C/C=C/C(=C2C=CC(=[N+](CC)c3ccc4c(=O)[nH][nH]c(=O)c4c3)C=C2)c2ccccc2)c2ccccc2)cc1)c1ccc2c(=O)[nH][nH]c(=O)c2c1` [GZW1-98-2], the IC50 (Ba-L strain of HIV-1; [9]) was 23.1 µM and the “TI (TC50/IC50)” value (Ba-L strain of HIV-1; [10]) was greater than 4.3.
